Assay results reported in ChEMBL document CHEMBL5625247, “Tetrahydro-β-carboline derivatives as potent histone deacetylase 6 inhibitors with broad-spectrum antiproliferative activity” (Eur J Med Chem, 2023).
Activity calls are given as the source filed them. No cut-off for these calls is given here.

Legend:
[1] = Tmax in Sprague-Dawley rat at 3 mg/kg, po by LC-MS/MS analysis; type: ADME, organism-based; settings: in vivo
[2] = Clearance in Sprague-Dawley rat at 0.2 mg/kg, iv by LC-MS/MS analysis; type: ADME, organism-based; settings: in vivo
[3] = AUC (0 to last) in Sprague-Dawley rat at 3 mg/kg, po by LC-MS/MS analysis; type: ADME, organism-based; settings: in vivo
[4] = target: Class 1 histone deacetylase (Homo sapiens) (UniProt Q13547+O15379+Q92769+Q9BY41); assay: Inhibition of class 1 HDAC in human RPMI-8226 cells assessed as increase in alpha-tubulin acetylation at 1 to 10 uM incubated for 24 hrs by Western blot analysis; type: cell-based; settings: dose 1-10 µM
Class 1 histone deacetylase (Homo sapiens), sequence (O15379 whole entry, looked up): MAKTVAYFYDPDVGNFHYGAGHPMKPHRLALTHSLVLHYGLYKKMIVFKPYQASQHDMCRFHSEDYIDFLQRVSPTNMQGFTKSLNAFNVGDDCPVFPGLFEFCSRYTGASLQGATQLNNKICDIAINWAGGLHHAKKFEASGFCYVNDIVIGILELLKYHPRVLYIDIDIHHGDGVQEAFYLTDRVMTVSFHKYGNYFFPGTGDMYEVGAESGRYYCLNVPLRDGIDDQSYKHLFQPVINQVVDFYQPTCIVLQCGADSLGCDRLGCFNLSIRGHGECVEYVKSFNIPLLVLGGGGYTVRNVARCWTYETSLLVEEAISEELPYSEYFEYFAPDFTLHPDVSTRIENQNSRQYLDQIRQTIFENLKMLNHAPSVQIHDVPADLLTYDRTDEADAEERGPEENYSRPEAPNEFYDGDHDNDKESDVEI
Class 1 histone deacetylase (Homo sapiens), sequence (Q13547 whole entry, looked up): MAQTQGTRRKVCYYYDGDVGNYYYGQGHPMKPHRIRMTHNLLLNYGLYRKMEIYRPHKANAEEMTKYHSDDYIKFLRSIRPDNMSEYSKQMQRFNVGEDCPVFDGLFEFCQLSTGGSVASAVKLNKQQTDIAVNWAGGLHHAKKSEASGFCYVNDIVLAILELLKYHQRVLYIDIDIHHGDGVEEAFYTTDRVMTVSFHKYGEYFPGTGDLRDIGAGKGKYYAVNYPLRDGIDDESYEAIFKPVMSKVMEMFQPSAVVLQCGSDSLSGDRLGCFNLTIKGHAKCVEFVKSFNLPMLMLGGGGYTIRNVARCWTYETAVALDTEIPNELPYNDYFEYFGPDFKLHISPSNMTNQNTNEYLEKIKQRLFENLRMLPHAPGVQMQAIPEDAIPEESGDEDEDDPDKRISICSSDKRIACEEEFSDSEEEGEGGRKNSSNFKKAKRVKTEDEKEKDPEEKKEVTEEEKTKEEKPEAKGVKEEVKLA
Class 1 histone deacetylase (Homo sapiens), sequence (Q92769 whole entry, looked up): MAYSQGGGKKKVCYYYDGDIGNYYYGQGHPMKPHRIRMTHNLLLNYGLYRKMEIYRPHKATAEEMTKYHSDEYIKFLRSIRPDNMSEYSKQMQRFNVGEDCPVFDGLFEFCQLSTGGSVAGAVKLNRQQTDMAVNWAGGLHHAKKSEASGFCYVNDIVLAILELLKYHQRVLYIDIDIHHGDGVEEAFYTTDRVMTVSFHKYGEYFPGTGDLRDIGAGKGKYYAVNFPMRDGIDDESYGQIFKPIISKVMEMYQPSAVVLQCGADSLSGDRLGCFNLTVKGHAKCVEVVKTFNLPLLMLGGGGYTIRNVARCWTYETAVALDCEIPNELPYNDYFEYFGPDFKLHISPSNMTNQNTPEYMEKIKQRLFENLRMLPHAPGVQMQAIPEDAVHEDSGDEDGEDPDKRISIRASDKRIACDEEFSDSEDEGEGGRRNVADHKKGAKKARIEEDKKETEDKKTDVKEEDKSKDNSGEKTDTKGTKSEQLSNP
Class 1 histone deacetylase (Homo sapiens), sequence (Q9BY41 whole entry, looked up): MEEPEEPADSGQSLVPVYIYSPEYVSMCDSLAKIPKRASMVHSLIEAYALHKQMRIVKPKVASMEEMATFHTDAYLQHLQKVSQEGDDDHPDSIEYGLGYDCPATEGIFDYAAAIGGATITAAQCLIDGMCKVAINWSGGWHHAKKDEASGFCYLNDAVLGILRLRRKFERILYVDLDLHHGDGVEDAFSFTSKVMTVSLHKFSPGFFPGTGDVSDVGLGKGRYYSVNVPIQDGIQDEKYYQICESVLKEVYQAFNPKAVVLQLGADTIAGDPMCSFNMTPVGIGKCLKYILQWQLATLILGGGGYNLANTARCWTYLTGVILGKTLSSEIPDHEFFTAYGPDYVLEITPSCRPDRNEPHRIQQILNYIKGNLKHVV

[5] = AUC (0 to last) in Sprague-Dawley rat at 0.2 mg/kg, iv by LC-MS/MS analysis; type: ADME, organism-based; settings: in vivo
[6] = target: T1, Protein deacetylase HDAC6 (Homo sapiens) (UniProt Q9UBN7); assay: Inhibition of HDAC6 in human RPMI-8226 cells assessed as increase in alpha-tubulin acetylation at 1 to 10 uM incubated for 24 hrs by Western blot analysis; type: cell-based; settings: dose 1-10 µM
T1 sequence (whole entry): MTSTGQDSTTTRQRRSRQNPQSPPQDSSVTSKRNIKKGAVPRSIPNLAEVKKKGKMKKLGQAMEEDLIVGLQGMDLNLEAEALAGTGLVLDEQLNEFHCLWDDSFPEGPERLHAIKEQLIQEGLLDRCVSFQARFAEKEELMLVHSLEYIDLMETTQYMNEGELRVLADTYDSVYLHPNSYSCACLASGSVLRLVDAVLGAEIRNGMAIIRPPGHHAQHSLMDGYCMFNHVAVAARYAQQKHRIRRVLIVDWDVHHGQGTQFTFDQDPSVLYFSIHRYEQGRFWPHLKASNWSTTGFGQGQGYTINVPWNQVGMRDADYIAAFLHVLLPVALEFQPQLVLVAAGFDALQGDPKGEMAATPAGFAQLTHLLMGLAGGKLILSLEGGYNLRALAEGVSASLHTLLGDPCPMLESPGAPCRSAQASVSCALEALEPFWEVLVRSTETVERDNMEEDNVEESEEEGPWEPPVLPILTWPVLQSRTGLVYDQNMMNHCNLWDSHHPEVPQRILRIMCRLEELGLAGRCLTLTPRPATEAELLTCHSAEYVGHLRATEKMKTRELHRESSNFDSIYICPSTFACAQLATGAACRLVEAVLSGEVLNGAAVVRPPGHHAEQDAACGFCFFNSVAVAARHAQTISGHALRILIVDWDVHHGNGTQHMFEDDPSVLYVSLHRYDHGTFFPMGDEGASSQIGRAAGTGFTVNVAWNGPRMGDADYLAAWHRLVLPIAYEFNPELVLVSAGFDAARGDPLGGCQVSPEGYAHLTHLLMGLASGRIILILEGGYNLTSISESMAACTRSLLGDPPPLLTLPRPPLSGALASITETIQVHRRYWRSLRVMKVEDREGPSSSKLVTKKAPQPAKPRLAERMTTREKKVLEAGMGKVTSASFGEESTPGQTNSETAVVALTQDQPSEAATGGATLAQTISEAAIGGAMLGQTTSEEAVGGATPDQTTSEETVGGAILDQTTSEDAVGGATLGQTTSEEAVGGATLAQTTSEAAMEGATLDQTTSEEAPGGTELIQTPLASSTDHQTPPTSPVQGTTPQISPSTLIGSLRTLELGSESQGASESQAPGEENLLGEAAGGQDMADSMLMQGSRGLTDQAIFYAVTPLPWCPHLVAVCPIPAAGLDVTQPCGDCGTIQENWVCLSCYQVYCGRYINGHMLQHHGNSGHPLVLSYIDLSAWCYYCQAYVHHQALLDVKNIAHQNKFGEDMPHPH

Histone deacetylase 11 = Histone deacetylase 11 (Homo sapiens, UniProt Q96DB2); assay: Inhibition of HDAC11 (unknown origin) expressed in baculovirus infected in Sf9 cells using RHKKAc as substrate preincubated for 5 to 10 mins followed by substrate addition measured after 2 hrs by fluorescence based assay
Histone deacetylase 11, sequence (Q96DB2 whole entry): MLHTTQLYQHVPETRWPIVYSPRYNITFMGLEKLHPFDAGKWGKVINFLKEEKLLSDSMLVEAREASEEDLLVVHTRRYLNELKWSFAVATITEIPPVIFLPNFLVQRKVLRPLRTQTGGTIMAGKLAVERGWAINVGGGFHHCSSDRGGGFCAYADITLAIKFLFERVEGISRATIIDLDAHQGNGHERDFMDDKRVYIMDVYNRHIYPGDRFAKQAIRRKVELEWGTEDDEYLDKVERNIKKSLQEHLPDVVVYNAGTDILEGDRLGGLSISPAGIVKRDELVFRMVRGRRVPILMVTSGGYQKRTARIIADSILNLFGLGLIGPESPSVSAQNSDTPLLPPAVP

[7] = Cmax in Sprague-Dawley rat at 3 mg/kg, po by LC-MS/MS analysis; type: ADME, organism-based; settings: in vivo
Histone deacetylase 4 = Histone deacetylase 4 (Homo sapiens, UniProt P56524); assay: Inhibition of HDAC4 (unknown origin) expressed in baculovirus infected in Sf9 cells using RHKKAc as substrate preincubated for 5 to 10 mins followed by substrate addition measured after 2 hrs by fluorescence based assay
Histone deacetylase 4, sequence (P56524 whole entry): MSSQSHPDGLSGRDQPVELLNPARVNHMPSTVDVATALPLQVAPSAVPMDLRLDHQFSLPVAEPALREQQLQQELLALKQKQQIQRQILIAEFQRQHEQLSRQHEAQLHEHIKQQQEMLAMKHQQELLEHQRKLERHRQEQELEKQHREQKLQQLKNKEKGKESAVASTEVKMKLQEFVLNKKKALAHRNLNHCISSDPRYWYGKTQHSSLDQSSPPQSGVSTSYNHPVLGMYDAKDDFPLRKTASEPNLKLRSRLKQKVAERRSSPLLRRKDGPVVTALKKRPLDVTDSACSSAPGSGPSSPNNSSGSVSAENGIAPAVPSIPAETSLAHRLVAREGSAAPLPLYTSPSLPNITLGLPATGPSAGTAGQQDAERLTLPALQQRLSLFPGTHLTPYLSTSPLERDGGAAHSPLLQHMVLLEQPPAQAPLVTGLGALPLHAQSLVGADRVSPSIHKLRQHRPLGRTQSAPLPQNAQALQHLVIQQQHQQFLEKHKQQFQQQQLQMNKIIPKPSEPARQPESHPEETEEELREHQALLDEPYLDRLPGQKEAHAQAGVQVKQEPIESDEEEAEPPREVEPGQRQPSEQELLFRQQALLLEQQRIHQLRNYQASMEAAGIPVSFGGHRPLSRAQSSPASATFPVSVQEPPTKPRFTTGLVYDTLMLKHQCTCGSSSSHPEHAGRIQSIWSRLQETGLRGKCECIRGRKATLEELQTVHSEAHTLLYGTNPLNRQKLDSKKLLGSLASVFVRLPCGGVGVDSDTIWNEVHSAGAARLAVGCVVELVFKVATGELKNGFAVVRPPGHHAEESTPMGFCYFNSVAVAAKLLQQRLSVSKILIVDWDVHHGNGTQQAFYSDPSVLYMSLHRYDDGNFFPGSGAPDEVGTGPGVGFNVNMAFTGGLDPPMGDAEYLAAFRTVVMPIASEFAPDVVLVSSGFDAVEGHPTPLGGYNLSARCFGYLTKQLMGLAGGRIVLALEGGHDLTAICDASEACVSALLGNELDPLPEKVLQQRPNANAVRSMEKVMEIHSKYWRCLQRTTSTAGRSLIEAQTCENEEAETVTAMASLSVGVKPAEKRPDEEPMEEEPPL

[8] = target: T2, Protein deacetylase HDAC6 (Homo sapiens, UniProt Q9UBN7); assay: Inhibition of HDAC6 (unknown origin) expressed in baculovirus infected in Sf9 cells using RHKKAc as substrate preincubated for 5 to 10 mins followed by substrate addition measured after 2 hrs by fluorescence based assay
T2 sequence (Q9UBN7 whole entry): T1 sequence (whole entry)

[9] = AUC (0 to infinity) in Sprague-Dawley rat at 0.2 mg/kg, iv by LC-MS/MS analysis; type: ADME, organism-based; settings: in vivo
[10] = Oral bioavailability in Sprague-Dawley rat at 3 mg/kg by LC-MS/MS analysis; type: ADME, organism-based; settings: in vivo
Histone deacetylase 2 = Histone deacetylase 2 (Homo sapiens, UniProt Q92769); type: cell-based, Sf9
Histone deacetylase 2, sequence (Q92769 whole entry): as the sequence (Q92769 whole entry, looked up) above

Histone deacetylase 5 = Histone deacetylase 5 (Homo sapiens, UniProt Q9UQL6); assay: Inhibition of HDAC5 (unknown origin) expressed in baculovirus infected in Sf9 cells using RHKKAc as substrate preincubated for 5 to 10 mins followed by substrate addition measured after 2 hrs by fluorescence based assay
Histone deacetylase 5, sequence (Q9UQL6 whole entry): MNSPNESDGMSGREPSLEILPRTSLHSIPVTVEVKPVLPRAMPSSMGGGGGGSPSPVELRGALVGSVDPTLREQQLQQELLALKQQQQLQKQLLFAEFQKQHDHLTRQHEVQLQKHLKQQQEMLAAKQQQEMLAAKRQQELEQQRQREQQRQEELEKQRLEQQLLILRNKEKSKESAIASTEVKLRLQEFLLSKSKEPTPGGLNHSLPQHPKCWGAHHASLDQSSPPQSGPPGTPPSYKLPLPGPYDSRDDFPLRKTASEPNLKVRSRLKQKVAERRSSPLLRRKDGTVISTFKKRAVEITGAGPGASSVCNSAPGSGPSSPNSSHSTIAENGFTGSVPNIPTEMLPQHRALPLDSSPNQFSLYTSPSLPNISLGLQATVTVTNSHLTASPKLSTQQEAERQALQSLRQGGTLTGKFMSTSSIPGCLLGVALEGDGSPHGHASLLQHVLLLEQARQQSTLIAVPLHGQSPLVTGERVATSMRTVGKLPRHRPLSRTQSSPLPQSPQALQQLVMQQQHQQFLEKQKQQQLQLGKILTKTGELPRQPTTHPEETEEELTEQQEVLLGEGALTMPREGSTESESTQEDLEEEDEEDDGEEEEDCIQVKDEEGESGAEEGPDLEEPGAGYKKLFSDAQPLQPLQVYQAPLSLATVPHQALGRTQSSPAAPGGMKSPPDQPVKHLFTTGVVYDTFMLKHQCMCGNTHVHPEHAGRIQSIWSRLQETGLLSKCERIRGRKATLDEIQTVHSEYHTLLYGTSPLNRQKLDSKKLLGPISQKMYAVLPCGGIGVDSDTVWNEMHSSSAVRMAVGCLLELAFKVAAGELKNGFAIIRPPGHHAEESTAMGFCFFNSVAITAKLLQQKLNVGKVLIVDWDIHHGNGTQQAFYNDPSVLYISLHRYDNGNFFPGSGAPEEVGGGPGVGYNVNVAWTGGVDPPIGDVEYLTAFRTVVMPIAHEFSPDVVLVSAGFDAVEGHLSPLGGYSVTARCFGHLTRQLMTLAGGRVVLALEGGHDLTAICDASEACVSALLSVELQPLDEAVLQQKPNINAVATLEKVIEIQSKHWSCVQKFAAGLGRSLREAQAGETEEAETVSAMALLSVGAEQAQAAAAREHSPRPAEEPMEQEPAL

Histone deacetylase 1 = Histone deacetylase 1 (Homo sapiens, UniProt Q13547); assay: Inhibition of HDAC1 (unknown origin) expressed in baculovirus infected in Sf9 cells using RHKKAc as substrate at 500 nM preincubated for 5 to 10 mins followed by substrate addition measured after 2 hrs by fluorescence based assay relative to control; settings: time 5-130 min
Histone deacetylase 1, sequence (Q13547 whole entry): as the sequence (Q13547 whole entry, looked up) above

| SMILES | Tmax [1] | clearance [2] | AUC(0-t) [3] | inhibition [4] | AUC(0-t) [5] | inhibition [6] | IC50 (Histone deacetylase 11) | Cmax [7] | IC50 (Histone deacetylase 4) | IC50 [8] | AUC(0-inf) [9] | bioavailability [10] | IC50 (Histone deacetylase 2) | IC50 (Histone deacetylase 5) | inhibition (Histone deacetylase 1) |
| --- | --- | --- | --- | --- | --- | --- | --- | --- | --- | --- | --- | --- | --- | --- | --- |
| O=C(NO)c1ccc(CNC(=O)[C@H]2Cc3c([nH]c4ccccc34)[C@H](c3ccc(Cl)cc3)N2)cc1 | 1.54 h | 4.4 mL/min/kg | 9.6 µM·h | Active | 1.46 µM·h | Active | 2100 nM | 1390 nM | > 50000 nM | 2.68 nM | 1.52 µM·h | 43.8% | 98.7 nM | > 50000 nM |  |
| COc1ccc(CN2[C@@H](C(=O)NCc3ccc(C(=O)NO)cc3)Cc3c([nH]c4ccccc34)[C@@H]2C2CC2)cc1 |  |  |  |  |  |  |  |  |  |  |  |  |  |  | 83.4% |
